Assays:
[1] = metabolic studies in rats; assay type: in vivo
[2] = system: Goldblatt (2K-1C) hypertensive rat model; assay: Goldblatt (2K-1C) hypertensive rat model, antihypertensive action; assay type: in vivo, Sprague-Dawley rats
Description: In further accordance with their ability to antagonize angiotensin II, the compounds of this invention show antihypertensive action in the following Goldblatt (2K-1C) hypertensive rat model. Sprague-Dawley rats weighing 150 g were anesthetized with pentobarbital (50 mg/kg ip) and the left renal artery was clipped with a silver wire bent to an internal diameter of 0.2 mm. The hypertension was established 4-7 weeks after clipping. At that time, the animals were anesthetized with pentobarbital (50 mg/kg ip) and the right carotid artery was cannulated. The catheter was passed subcutaneously to the dorsal side of the neck and exteriorized. The animals were fasted overnight but allowed access to water and the experiment was performed the next morning. The carotid catheter was connected to a blood pressure transducer which was linked to a MI^2 computer data acquisition system or to a Grass or Beckman recorder for the recording of mean arterial pressure (MAP) and heart rate. For oral administration, the rats were given either a compound of the invention (1, 3 or 10 mg/kg), losartan (30 mg/kg) as a standard or vehicle (0.5% methyl cellulose in distilled water) by gastric gavage (ig) in a volume of 5 mL/kg. For intravenous administration, the rats were given either a compound of the invention (0.03, 0.1, 1, 3 or 10 mg/kg) or vehicle (≦50% NaHCO3 in distilled water) in a volume of 1 mL/kg. In all experiments, saline was infused into the arterial cannula at 5 µL/min throughout the experiment to maintain patency of the cannula. Each compound was administered to a separate group of 6-12 rats and MAP and heart rate were recorded for 24 h. […] At each time point following dosing, averages were determined for absolute MAP, change in MAP (in mm Hg), and heart rate for all animals, and the standard error of the mean was calculated.

A II-infused rat model = assay: A II-infused rat model, antihypertensive action; assay type: in vivo, Rats; settings: 3 mg/kg id, four hours post-administration
Description: In accordance with their ability to antagonize angiotensin II, the compounds of this invention show antihypertensive action in the following A II-infused rat model. Rats are anesthetized with Dial-Urethane (0.60 mL/kg, ip) and the trachea cannulated with PE 240. Either one femoral artery and both femoral veins or the carotid artery and the corresponding jugular vein are cannulated with PE 50. If the jugular vein is cannulated, two cannulas are placed in the one vein. The initial portion of the duodenum (just distal to the stomach) is cannulated with PE 50 via a small midline incision. Arterial pressure and heart rate are measured from the arterial cannula. Ten to 15 min are allowed following surgery for stabilization of arterial pressure. Ganglion blockade is then produced by intravenous administration of mecamylamine at 3 mg/kg (1 mL/kg of a 3 mg/mL solution). Ganglion blockade causes a fall in arterial pressure of about 50 mmHg. Mecamylamine is given every 90 min throughout the remainder of the experiment. An A II infusion is then begun into the other venous cannula at 0.25 µg/kg/min (at 9.6 µL/min). The A II infusion returns arterial pressure to or slightly above the control level. Once arterial pressure has stabilized with the A II infusion, baseline values for mean arterial pressure (MAP) and heart rate are taken. […]

Which “identified as metabolite of the compound of Example 3 of U.S. Patent No. 5,149,599” value [1] does the source give for `Cc1nc(C)c2c(O)cc(=O)n(Cc3ccc(-c4ccccc4-c4nnn[nH]4)cc3)c2n1` [Example 4, 2,4-Dimethyl-5-hydroxy-8-[2'-(1H-tetrazol-5-yl)biphenyl-4-ylmethyl]-8H-pyrido[2,3-d]pyrimidin-7-one Sesquihydrate] here?
Its value is “significant metabolites”.

And the “presence of metabolite (duration and amount), Example 4 compared with Example 6” value [1]?
Its value is “present significantly longer and in greater amounts than the latter”.

What about the “maximum decrease in MAP” value ([2]; 0.1 mg/kg iv, 4 hours post-administration) of the same compound?
Its value is 67 mm Hg.

What about the “maximum decrease in MAP” value ([2]; 10 mg/kg ig, 23 hours post-administration) of the same compound?
Its value is 66 mm Hg.

Which results are given for `Cc1nc(C)c2c(n1)N(Cc1ccc(-c3ccccc3-c3nn[nH]n3)cc1)C(=O)CC2O` (stereo not shown) [Example 6, 5-Hydroxy-2,4-dimethyl-8-[2'-(1H-tetrazol-5-yl)-biphenyl-4-ylmethyl]-6,8-dihydro-5H-pyrido[2,3-d]pyrimidine-7-one Hydrate 0.4 Etherate]?
identified as metabolite of the compound of Example 3 of U.S. Patent No. 5,149,599 [1]: significant metabolites; maximum decrease in MAP ([2]; 10 mg/kg ig, 9 hours post-administration): 71 mm Hg

For `Cc1nc(CO)nc2c1CCC(=O)N2Cc1ccc(-c2ccccc2-c2nnn[nH]2)cc1` [Example 2, 2-Hydroxymethyl-4-methyl-8-[2'-(1H-tetrazol-5-yl)biphenyl-4-ylmethyl]-5,8-dihydro-6H-pyrido[2,3-d]pyrimidin-7-one], which “lowered the A II dependent blood pressure by an average of” value (A II-infused rat model) is on record?
Its value is 30%.
